One assay addresses T1, CDK4/cyclin D3 (Homo sapiens, UniProt P11802).
T1 construct: purchased Carna Biosciences, Inc. QS S Assist CDK4/Cyclin D3_FP Kit
Kind of assay: Human CDK4/cyclin D3 inhibitory activity (QS S Assist CDK4/Cyclin D3_FP Kit, IMAP fluorescence polarization). The class given is biochemical. Conditions: 50% inhibitory concentration against CDK4/cyclin D3, given as class symbol. Summed up: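 IMAP fluorescence polarization kit: CDK4/cyclin D3 at 12.5-25 ng/well with kit ATP/substrate/metal mix in 20 mM HEPES pH 7.4, 0.01% Tween20, 2 mM DTT, 45 min at room temperature. FP read at 485/535 nm after 30 min binding; IC50 from dose-response fit of percent inhibition versus enzyme and no-enzyme controls.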
(Fluorescence polarisation rises when a labelled molecule tumbles more slowly, as on binding a larger partner.)

Another assay has as its target T2, CDK2/cyclin A2 (Homo sapiens, UniProt P24941).
T2 construct: purchased Carna Biosciences, Inc. QS S Assist CDK2/Cyclin A2_FP Kit
The experiment in a line: Human CDK2/cyclin A2 inhibitory activity (QS S Assist CDK2/Cyclin A2_FP Kit, IMAP fluorescence polarization). The class given is biochemical. The conditions noted are these: 50% inhibitory concentration against CDK2/cyclin A2, given as class symbol. Summed up: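 Kinase activity read as fluorescence polarization (485/535 nm) after phosphorylated fluorescent substrate binds IMAP reagent (30 min, RT, dark). Enzyme (2.5 ng/well) reacted 60 min at RT with ATP/substrate/metal in HEPES pH 7.4 buffer with Tween 20 and DTT; no-enzyme wells define 0% activity; IC50 by curve fit.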

T1 sequence (P11802 whole entry): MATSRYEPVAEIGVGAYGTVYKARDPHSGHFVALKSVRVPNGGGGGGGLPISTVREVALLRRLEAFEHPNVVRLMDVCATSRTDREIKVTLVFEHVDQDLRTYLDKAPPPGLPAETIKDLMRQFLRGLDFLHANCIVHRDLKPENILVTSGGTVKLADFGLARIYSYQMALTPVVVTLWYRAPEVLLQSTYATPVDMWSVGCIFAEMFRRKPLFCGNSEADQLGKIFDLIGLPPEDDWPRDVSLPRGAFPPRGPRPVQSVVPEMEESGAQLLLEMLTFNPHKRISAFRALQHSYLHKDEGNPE
T1 sequence (P30281 whole entry partner): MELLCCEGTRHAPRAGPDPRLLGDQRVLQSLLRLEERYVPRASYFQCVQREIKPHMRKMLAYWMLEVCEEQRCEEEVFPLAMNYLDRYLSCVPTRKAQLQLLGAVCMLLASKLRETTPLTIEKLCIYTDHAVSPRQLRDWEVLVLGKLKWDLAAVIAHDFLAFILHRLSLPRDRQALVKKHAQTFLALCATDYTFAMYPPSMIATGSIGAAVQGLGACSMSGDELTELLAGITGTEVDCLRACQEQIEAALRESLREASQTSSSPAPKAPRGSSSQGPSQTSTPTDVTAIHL

On to `CC(C)Nc1nc([C@@H](C)O)cc2cnc(Nc3ccc(N4CCN5CCCC5C4=O)cn3)nc12` (stereo partly shown) [Compound 642], for which the IC50 against CDK4/cyclin D3 is below 10 nM; against CDK2/cyclin A2 it was at least 100 nM.
In the case of `CC(C)Nc1nc([C@@H](C)O)cc2cnc(Nc3ccc(N4CCN(CC(C)(C)O)CCC4=O)cn3)nc12` [Compound 643], the concentration for half-maximal inhibition (IC50) at CDK4/cyclin D3 is below 10 nM; at CDK2/cyclin A2, at least 100 nM.
Taken in the same sequence, the figures for `CC(C)Nc1nc([C@@H](C)O)cc2cnc(Nc3ccc(CN4CCN(C(C)CO)CC4)cn3)nc12` (stereo partly shown) [Compound 644] were below 10 nM and at least 100 nM.
In the case of `CC(O)c1cc2cnc(Nc3ccc(OC4CCNCC4F)cn3)nc2c(NC2CCCOC2)n1` (stereo not shown) [Compound 645], the IC50 on CDK4/cyclin D3 was below 10 nM; against CDK2/cyclin A2, at least 100 nM.
Taken in the same sequence, the figures for `COC1CCC(Nc2nc(C(C)O)cc3cnc(Nc4ccc(OC5CCNCC5F)cn4)nc23)CC1` (stereo not shown) [Compound 646] were below 10 nM and at least 100 nM.
Taken in the same sequence, the figures for `CC(O)c1cc2cnc(Nc3ccc(OC4CCNCC4F)cn3)nc2c(NC2CCC(C)(C)OC2)n1` (stereo not shown) [Compound 647] were below 10 nM and at least 100 nM.
Taken in the same sequence, the figures for `CC(C)Nc1nc([C@@H](C)O)cc2cnc(Nc3ccc(N4CCC5(CC4)CNC(=O)C5)nn3)nc12` [Compound 648] were below 10 nM and at least 100 nM.
Turning to `C[C@@H](O)c1cc2cnc(Nc3ccc(N4CCNCC4=O)cn3)nc2c(NC2CCC(C)(C)OC2)n1` (stereo partly shown) [Compound 649], the values for the IC50 against CDK4/cyclin D3 and on CDK2/cyclin A2 were below 10 nM and at least 100 nM, respectively.
`COC1CCC(Nc2nc([C@@H](C)O)cc3cnc(Nc4ccc(N5CCNCC5=O)cn4)nc23)CC1` (stereo partly shown) [Compound 650]: the IC50 is below 10 nM against CDK4/cyclin D3 and at least 100 nM against CDK2/cyclin A2.
For `CC(C)Nc1nc([C@@H](C)O)cc2cnc(Nc3ccc4c(n3)CCN(C(=O)CO)C4)nc12` [Compound 651], the IC50 at CDK4/cyclin D3 is below 10 nM; at CDK2/cyclin A2 it was at least 100 nM.
Taken in the same sequence, the figures for `C[C@@H](O)c1cc2cnc(Nc3ccc4c(n3)CCN(C(=O)CO)C4)nc2c(N[C@H]2CC[C@H](C)CC2)n1` [Compound 652] were below 10 nM and at least 100 nM.
For `C[C@@H](O)c1cc2cnc(Nc3ccc4c(n3)CCN(C(=O)CO)C4)nc2c(N[C@H]2CC[C@@H](C)CC2)n1` [Compound 653], the values for the IC50 against CDK4/cyclin D3 and on CDK2/cyclin A2 were below 10 nM and at least 100 nM, respectively.
Taken in the same sequence, the figures for `C[C@@H](O)c1cc2cnc(Nc3ccc4c(n3)CCN(C(=O)CO)C4)nc2c(NC2CCC(C)(C)CC2)n1` [Compound 654] were below 10 nM and at least 100 nM.
Taken in the same sequence, the figures for `CC(C)Nc1nc([C@@H](C)O)cc2cnc(Nc3cc4c(cn3)CN(C(=O)CO)CC4)nc12` [Compound 655] were 10 to 100 nM and at least 100 nM.
Taken in the same sequence, the figures for `CC(C)Nc1nc([C@@H](C)O)cc2cnc(Nc3ccc4c(n3)CN(C(=O)CO)C4)nc12` [Compound 656] were below 10 nM and at least 100 nM.
Take `CC(C)Nc1nc([C@@H](C)O)cc2cnc(Nc3ccc(N4CCN(C(C)(C)C(=O)O)CC4)nn3)nc12` [Compound 657]: the IC50 was below 10 nM against CDK4/cyclin D3 and at least 100 nM at CDK2/cyclin A2.
For `C[C@@H](O)c1cc2cnc(Nc3ccc(N4CCNCC4=O)cn3)nc2c(NC2CCC(C)(C)CC2)n1` [Compound 658], the results for the IC50 against CDK4/cyclin D3 and against CDK2/cyclin A2 were below 10 nM and at least 100 nM, respectively.
Taken in the same sequence, the figures for `CC(C)Nc1nc([C@@H](C)O)cc2cnc(Nc3ccc(N4CCN(C(=O)CO)CC4)nn3)nc12` [Compound 659] were below 10 nM and at least 100 nM.
Taken in the same sequence, the figures for `CC(C)Nc1nc([C@@H](C)O)cc2cnc(Nc3ccc(N4CCC(CO)CC4)nn3)nc12` [Compound 660] were below 10 nM and at least 100 nM.
As for `CC(C)Nc1nc([C@@H](C)O)cc2cnc(Nc3ccc(N4CC[C@@H](O)C4)nn3)nc12` [Compound 661], the figures for the IC50 on CDK4/cyclin D3 and on CDK2/cyclin A2 were below 10 nM and at least 100 nM, respectively.
Taken in the same sequence, the figures for `CC(C)Nc1nc([C@@H](C)O)cc2cnc(Nc3ccc(N4CC[C@H](O)C4)nn3)nc12` [Compound 662] were below 10 nM and at least 100 nM.
Taken in the same sequence, the figures for `CC(C)Nc1nc([C@@H](C)O)cc2cnc(Nc3ccc(N4CCC(CO)C4)nn3)nc12` (stereo partly shown) [Compound 663] were below 10 nM and at least 100 nM.
Taken in the same sequence, the figures for `CC(C)Nc1nc([C@@H](C)O)cc2cnc(Nc3ccc(N4CCC(O)C(C)(C)C4)nn3)nc12` (stereo partly shown) [Compound 664] were below 10 nM and at least 100 nM.
Take `CC(C)Nc1nc([C@@H](C)O)cc2cnc(Nc3ccc(N4CCNCC(C)C4=O)cn3)nc12` (stereo partly shown) [Compound 665]: the IC50 is below 10 nM against CDK4/cyclin D3 and at least 100 nM against CDK2/cyclin A2.
Taken in the same sequence, the figures for `CC(C)Nc1nc([C@@H](C)O)cc2cnc(Nc3ccc(N4CC(O)C4)nn3)nc12` [Compound 666] were below 10 nM and at least 100 nM.
Taken in the same sequence, the figures for `CC(C)Nc1nc([C@@H](C)O)cc2cnc(Nc3ccc(N4CC(CO)C4)nn3)nc12` [Compound 667] were below 10 nM and at least 100 nM.
Taken in the same sequence, the figures for `CC(C)Nc1nc([C@@H](C)O)cc2cnc(Nc3ccc(N4CC(C)(CO)C4)nn3)nc12` [Compound 668] were below 10 nM and at least 100 nM.
As for `CC(C)Nc1nc([C@@H](C)O)cc2cnc(Nc3ccc(CC(=O)N4CCNC5(CC5)C4)cn3)nc12` [Compound 669], the IC50 against CDK4/cyclin D3 is 10 to 100 nM; against CDK2/cyclin A2, at least 100 nM.
Taken in the same sequence, the figures for `CC(C)Nc1nc(C2CCCO2)cc2cnc(Nc3ccc(N4CCNCC4=O)cn3)nc12` (stereo not shown) [Compound 670] were at least 100 nM and at least 100 nM.
Consider `CC(C)Nc1nc(C(C)O)cc2cnc(Nc3ccc(OC4CNCC4F)cn3)nc12` (stereo not shown) [Compound 673], for which the IC50 was below 10 nM at CDK4/cyclin D3 and at least 100 nM against CDK2/cyclin A2.
Consider `CC(C)Nc1nc([C@@H](C)O)cc2cnc(Nc3ccc(CN4CCN(C[C@H](C)O)CC4)cn3)nc12` [Compound 674], for which the 50% inhibitory concentration (IC50) on CDK4/cyclin D3 is below 10 nM; at CDK2/cyclin A2, at least 100 nM.
Taken in the same sequence, the figures for `CC(C)Nc1nc([C@@H](C)O)cc2cnc(Nc3ccc(CN4CCN(C[C@@H](C)O)CC4)cn3)nc12` [Compound 675] were below 10 nM and at least 100 nM.
Taken in the same sequence, the figures for `CC(C)Nc1nc([C@@H](C)O)cc2cnc(Nc3ccc(N4CCN(C[C@H](C)O)CC4)nn3)nc12` [Compound 676, (S)-1-(4-(6-((6-((R)-1-hydroxyethyl)-8-(isopropylamino)pyrido[3,4-d]pyrimidin-2-yl)amino)pyridazin-3-yl)piperazin-1-yl)propan-2-ol] were below 10 nM and at least 100 nM.
Regarding `CC(C)Nc1nc([C@@H](C)O)cc2cnc(Nc3ccc(N4CCN(C[C@@H](C)O)CC4)nn3)nc12` [Compound 677], the IC50 on CDK4/cyclin D3 was below 10 nM; against CDK2/cyclin A2, at least 100 nM.
Taken in the same sequence, the figures for `CO[C@H](C)c1cc2cnc(Nc3ccc(N4CCN(C(C)(C)C(=O)O)CC4)nn3)nc2c(NC(C)C)n1` [Compound 678, (R)-2-(4-(6-((8-(isopropylamino)-6-(1-methoxyethyl)pyrido[3,4-d]pyrimidin-2-yl)amino)pyridazin-3-yl)piperazin-1-yl)-2-methylpropanoic acid] were 10 to 100 nM and at least 100 nM.
Taken in the same sequence, the figures for `CO[C@H](C)c1cc2cnc(Nc3ccc(CN4CCN(C(C)(C)C(=O)O)CC4)cn3)nc2c(NC(C)C)n1` [Compound 679] were 10 to 100 nM and at least 100 nM.
For `CO[C@H](C)c1cc2cnc(Nc3ccc(N4CCN(C5COC5)CC4)nn3)nc2c(NC(C)C)n1` [Compound 680], the IC50 against CDK4/cyclin D3 is 10 to 100 nM; against CDK2/cyclin A2, at least 100 nM.
For `CO[C@H](C)c1cc2cnc(Nc3ccc(CN4CCN(C5COC5)CC4)cn3)nc2c(NC(C)C)n1` [Compound 681], the IC50 against CDK4/cyclin D3 was 10 to 100 nM; against CDK2/cyclin A2 it was at least 100 nM.
Turning to `CC(C)Nc1nc([C@@H](C)O)cc2cnc(Nc3ccc(N4CCN(C5COC5)CC4)nn3)nc12` [Compound 682, (R)-1-(8-(isopropylamino)-2-((6-(4-(oxetan-3-yl)piperazin-1-yl)pyridazin-3-yl)amino)pyrido[3,4-d]pyrimidin-6-yl)ethanol], the IC50 against CDK4/cyclin D3 was below 10 nM; at CDK2/cyclin A2 it was at least 100 nM.
Taken in the same sequence, the figures for `CC(C)Nc1nc([C@@H](C)O)cc2cnc(Nc3ccc(CN4CCN(C5COC5)CC4)cn3)nc12` [Compound 683] were below 10 nM and at least 100 nM.
Turning to `CC(C)Nc1nc([C@@H](C)O)cc2cnc(Nc3ccc(C4CCCNC(C)C4=O)cn3)nc12` (stereo partly shown) [Compound 686], the IC50 against CDK4/cyclin D3 was below 10 nM; against CDK2/cyclin A2, at least 100 nM.
Taken in the same sequence, the figures for `C[C@@H](O)c1cc2cnc(Nc3ccc(N4CCNCC4=O)cn3)nc2c(NCC2CCCOC2)n1` (stereo partly shown) [Compound 691] were below 10 nM and at least 100 nM.
Taken in the same sequence, the figures for `C[C@@H](O)c1cc2cnc(Nc3ccc(N4CCNCC4=O)cn3)nc2c(NC2CCOC(C)(C)C2)n1` (stereo partly shown) [Compound 692] were below 10 nM and at least 100 nM.
Taken in the same sequence, the figures for `CC(C)Nc1nc([C@@H](C)O)cc2cnc(Nc3ccc4c(n3)CCNC4)nc12` [Compound 693] were below 10 nM and at least 100 nM.
In the case of `CC(C)Nc1nc([C@@H](C)O)cc2cnc(Nc3cc4c(cn3)CNCC4)nc12` [Compound 694], the IC50 at CDK4/cyclin D3 was 10 to 100 nM; on CDK2/cyclin A2, at least 100 nM.
Taken in the same sequence, the figures for `CC(C)Nc1nc([C@@H](C)O)cc2cnc(Nc3ccc4c(n3)CNC4)nc12` [Compound 695] were below 10 nM and at least 100 nM.
In the case of `CO[C@H](C)c1cc2cnc(Nc3ccc(N4CC5(CCN5)C4)nn3)nc2c(NC(C)C)n1` [Compound 696], the IC50 against CDK4/cyclin D3 was below 10 nM; on CDK2/cyclin A2, at least 100 nM.

The IC50 is the midpoint of a concentration-inhibition curve. Low values mean higher potency, high ones lower potency.
